From patent publication EP4506341A1, “TISSUE REGENERATION APPROACHES” (ZeCardio Therapeutics SL, priority 2023, dated 2025)

Legend:
H9C2 cells = assay: MTT proliferation assay in Tob1 expressing (control) H9C2 cells; format: cell-based, rat; details: for H9C2 % Proliferation (normalized to control): 4 microMolar, MTT assay after 144 hours, increase above control values; for EC50 in H9C2 cells lower than EC50 in Tob1 KO H9C2 cells (selectivity for Tob1): H9C2 control vs Tob1 KO H9C2 cells, MTT; for EC50: Rattus norvegicus, H9C2 control cells, proliferation by MTT, 144 hours, 1,28 nM to 20 µM
Protocol: (§1) 3-(4,5-dimethylthiazol-2-yl)-2,5-diphenyltetrazolium bromide, MTT (Sigma, M5655-500MG) assay was used as a surrogate to evaluate cell number and cell proliferation in H9C2 and MCF-7 cells. MTT is a colorimetric assay that measures cell metabolic activity in viable cells, resulting from the activity of mitochondrial dehydrogenases which cleave the tetrazolium ring of the yellow tetrazolium salt MTT, yielding formazan crystals. The protocol was designed to align Tob1 peak decrease in mRNA expression levels (48-96 hours post-transfection) with the period of exponential growth of the cells (24-72 hours post-replating).
(§2) MCF-7 cells and H9C2 cells were seeded at 100,000 cells/well in 24-well in DMEM + 10% FBS plates to reach 80-90% at time of transfection. MCF-7 and H9C2 cells were transfected 24 hours post-plating with Silencer® Select siRNAs to knock down Tob1. 48 hours post-transfection, cells were lifted and plated at 10000 (MCF-7) and 8000 cells/well (H9C2) in 96-well plates and grown for 144 hours. At day 6 (144 hours), 0,5 mg/ml MTT was added and incubated for 3 hours, producing formazan crystals that were solubilized with SDS 20%+ HCl 0.02N. 24 hours later, absorbance was measured at 590 nm with the spectrophotometer FLUOstar Omega plate reader (BMG LabTech).
(§3) Both Tob1 expressing and Tob1 knockout H9C2 cells were seeded at 8000 cells/well in 96-well plates. 48 hours later, cells were treated with 1.28 nM; 6.4 nM; 32 nM, 160nM, 800 nM, 4 µM and 20 µM ZXR-807, ZXR-810; ZXR-081 and ZXR-090 and cell proliferation was measured 144 hours post-treatment using the MTT assay as described above.
Once lead compounds were selected, their efficacy, potency and selectivity at promoting proliferative responses, were evaluated in vitro in rat cardiomyoblasts (H9C2 cells) using MTT assay. H9C2 cells were treated with vehicle 0,3% DMSO and increasing concentrations of Tob1 inhibitors: ZXR-807, ZXR-810, ZXR-081 and ZXR-090, (1,28 nM to 20 µM), followed by the assessment of proliferation, using the MTT assay, after cells were left to grow for 144 hours (6 Days).

hiPSC cardiomyocytes [1] = assay: CellTiter-Glo proliferation assay in hiPSC-CMs; format: cell-based, Human; details: 8nM
Protocol: Human Induced pluripotent stem-cell derived (iPS-CMs) cardiomyocytes (iCell® Cardiomyocytes, Cat. No. 11713) were purchased from FUJIFILM Cellular Dynamics. hiPSC Cardiomyocytes were seeded into 96 well plates coated with 0,1% gelatin (STEMCELL tech, 07903) with iCell Cardiomyocytes plating medium (Fujifilm, M1001). After 48 hours, the medium was changed to iCell Cardiomyocytes maintenance medium (Fujifilm, M1003) and cells were cultured for 2 weeks with media replacement every 48-72 hours. Cells were maintained in a humidified incubator (Thermo Scientific,HERACELL 150i) in a 95% air 5% CO2 environment at 37 °C
CellTitler-Glo® (Promega, G7570) was used to measure the activity of the compounds of the invention in triggering proliferation in hiPSC-CMs. The CellTiter-Glo® Luminescent Cell Viability Assay, similar to the MTT assay but with higher sensitivity, determines the number of metabolically active and viable cells, and is based on the quantification of ATP levels in the cells.
hiPSC-CMs were seeded at 7000 cells/well in 96-well plates and treated with the compounds of the invention at 8; 40 and 200nM in a 0.3% DMSO containing iCell Cardiomyocyte medium and a control treatment or vehicle with 0.3% DMSO in iCell cardiomyocyte medium. hiPSC-CMs proliferation was measured after 144h (6 days) , and 336 (14 days) of treatment. At each time point, 100 µL of CellTiter Glo (ratio 1:1 CellTiter Glo: cell culture medium ) was added to each well containing 100 µL iCell Cardiomyocyte medium, following the manufacturer's instructions. Luminescence was read in Varioskan (Thermo Fisher Scientific), 30 minutes after adding the reagent.

hiPSC cardiomyocytes [2] = assay: Cell migration (wound healing) assay in hiPSC-CMs; format: cell-based, Human; details: 8 nM, 144 hours
Protocol: (§4) hiPSC-CMs cells were seeded at 25,000 cells per well in 96 wells plates. 168 hours after seeding, cells were scraped with a 200 µL tip and treated with 8, 40 and 200nM ZXR-807, ZXR-810, ZXR-081 and ZXR-090. Plates were imaged with an inverted microscope (Leica, DMI6000B) right after generating the wound (0 h) and 144 hours post-scraping.
All images were analyzed using the Fiji software (Schindelin et al., 2012) and the amount of cellular migration was determined by calculating the wound area at 0h and 28 hours or 144 hours and normalized to control vehicle-treated cells (0,3% DMSO).

Tob1 KO H9C2 cells = assay: MTT proliferation assay in Tob1 knockout H9C2 cells; format: cell-based; details: Rattus norvegicus; Tob1 depleted (KO) H9C2 cells; proliferation by MTT, 144 hours
Protocol: 100.000 H9C2 cells were plated in a 24 well plate day before transfection with lipofectamine CRISPRMAX™ (Thermofisher, CMAX00001), to obtain a 70% of confluence. The CRISPRMAX™ assay was performed following the manufacturer's instructions. Briefly Cas9 nuclease/gRNA RNP complexes were prepared by combining the following components , 3,85 µ! of 2 µM Alt-R S.p. Cas9 Nuclease v3 (1081059, IDT)1; 2,25 µ! of 2 µM sgRNAs (Tob1 sgRNA1: […] (SEQ ID NO: 3) and Tob1 sgRNA2: […] (SEQ ID NO: 4), negative control: GCACUACCAGAGCUAA (SEQ ID NO: 5), Synthego), 2,5 µ! Cas9 plus reagent in 16,65 µl Opti-MEM™(Gibco™; Life Technologies, Grand Island, NY, USA) in tube 1 and 1,5 µl lipofectamine CRISPRMAX™ in 25 µ! in Opti-MEM™ in tube 2. The Cas9/sgRNA ribonucleoprotein (RNP) complex was obtained by incubating the mix of tub1 and 2 for 10 minutes at room temperature. 50 µL of the RNP complex was added to cells in 450 µL of fresh high glucose DMEM (ATCC, 30-2002), supplemented with 10 % FBS and without antibiotics and cells were incubated with the RNP complex for 48 h at 37 °C.
as §1
as §2, with “At day 6 (144 hours), 0,5 mg/ml MTT was added and incubated for 3 hours, producing formazan crystals that were solubilized with SDS 20%+ HCl 0.02N.” left out
as §3
Tob1 inhibitors selectivity was assessed by comparing dose-responses of ZXR-807, ZXR-810, ZXR-081 and ZXR-090 in H9C2 control cells and H9C2 Tob1 KO cells where Tob1 was depleted by CRISPR/Cas9 technology. […]

Ccnb1 = assay: Real time PCR of proliferation marker gene Ccnb1 in H9C2 cells; format: cell-based, rat; details: 100 nM in H9C2 cells
Protocol: (§5) In order to evaluate 1) efficiency of Tob1 knockdown in MCF-7 and H9C2 cells and 2) expression levels of proliferation markers (Pcna, Cdk1 and Ccnb1) in H9C2 cells treated with the compounds of the invention, H9C2 cells were harvested by trypsinization and centrifuged at 300 x g for 5 min. Total mRNA was isolated using the Maxwell 16 LEV simplyRNA Cells Kit or Tissue Kit (Promega, Madison, WI) following the manufacturer's instructions. Nanodrop ND-1000 Spectrophotometer (Thermo Fisher Scientific, Waltham, MA) was used to quantity the amount of RNA extracted. cDNA synthesis was performed from 300 ng of total RNA with the SuperScript IV First-Strand Synthesis System (Thermo Fisher Scientific, Waltham, MA).
(§6) Real-time PCR was conducted using LightCycler 480 SYBR Green I Master on a LightCycler 480 thermal cycler (Roche, Basel, Switzerland). The expression levels of the indicated genes were calculated by the conventional 2^-DDCt method, with normalization to housekeeping gene glyceraldehyde-3-phosphate dehydrogenase (GAPDH).

Ki67 = assay: Nuclear Ki67 immunostaining in hiPSC-CMs after migration assay; format: cell-based, Human; details: 8 nM, 144 hrs, hiPSC cardiomyocytes
Protocol: as §4
Following the migration assay, the medium was aspirated from the 96-well plates, and cells were washed twice with phosphate buffered saline solution (PBS) 1x (Fisher bioreagents, BP399-4). Cells were fixed with 4% paraformaldehyde (Sigma, 158127) for 10 minutes at room temperature and washed 3 times with PBS 1x. Cells were permeabilized with Triton™ X-100, 0.03% (Merck, T8787) and blocked with 0.5% Goat serum (ThermoFisher, 16210064) in PBS 1x, during 1 hour at room temperature. The primary antibodies Ki67 rabbit antibody 1/100 (Santacruz, sc-23900), and cardiac Troponin (cTnT mouse antibody 1/100 (ThermoFisher, MA5-12960) were diluted in the following buffer: Triton™ X-100 0.03% and 1% Bovine serum albumin (BSA) 10% (nzytech, MB04602) and PBS 1x. hiPSC-CMs were incubated with the primary antibodies overnight at 4°C, washed three times with PBS 1x and incubated with the secondary antibodies goat anti-mouse or anti -rabbit coupled to Alexa fluorescent dyes (company). DAPI 1/1000 (Merck, D9542-5MG) was incubated for 20 min at room temperature to visualize nuclei. Cells were washed out 3x with PBS and kept in PBS at 4°C.
Preparations were examined on a fluorescent inverted microscope Leica, DMI6000B using 20x dry objectives from Leica. Images were analyzed with the open source image processing package Fiji to quantify Nuclear Ki67 fluorescent intensity and cellular cardiac troponin T (cTnT) normalized to the number of nuclei in the field of view

Cdk1 = assay: Real time PCR of proliferation marker gene Cdk1 in H9C2 cells; format: cell-based, rat; details: 100 nM in H9C2 cells; for Cdk1 mRNA expression increase: normalized to vehicle-treated cells
Protocol: as §5, §6

Structure (SMILES) | H9C2 % Proliferation (normalized to control) (H9C2 cells) | EC50 in H9C2 cells lower than EC50 in Tob1 KO H9C2 cells (selectivity for Tob1) (H9C2 cells) | increase of proliferation rate of hiPSC cardiomyocytes (hiPSC cardiomyocytes [1]; 144 hours (6 days)) | increase of proliferation rate of hiPSC cardiomyocytes (hiPSC cardiomyocytes [1]; 336 hours (14 days)) | cell migration of hiPSC-CMs (in words) (hiPSC cardiomyocytes [2]) | EC50 (Tob1 KO H9C2 cells) | Ccnb1 expression (in words) (Ccnb1) | nuclear Ki67 expression away from the scratch (Ki67) | transcriptional activation of Cdk1 (in words) (Cdk1) | EC50 (H9C2 cells) | Cdk1 mRNA expression increase (Cdk1) | time course of effect on proliferation increase (in words) (hiPSC cardiomyocytes [1]; peaking at 144 hours and disappearing by 336 hours) | nuclear Ki67 signal intensity close to the scratch (Ki67)
N[C@H]1C[C@@H](C(=O)N2CCSCC2)[C@H](c2ccc(Cl)cc2)C1 (relative stereo) [ZXR-807, rel-[(1R,2R,4R)-4-amino-2-(4-chlorophenyl)cyclopentyl]-thiomorpholino-methanone] | 27,4% | < 60,000 | 20-28% | 40% | activate cell migration | 82.8 nM | more moderately increased | increased | promote the transcriptional activation | – | – | – | –
CC(=O)N[C@H]1C[C@@H](C(=O)N2CCOCC2)[C@H](c2ccc(Cl)cc2)C1 (relative stereo) [ZXR-090, rel-N-[(1R,3R,4R)-3-(4-chlorophenyl)-4-(morpholine-4-carbonyl)cyclopentyl]acetamide] | 26,6% | 200-300 | – | – | activate cell migration | 62.8 nM | more moderately increased | – | – | 0.128 nM | about 3 fold | – | –
CC(C)N(C)C(=O)[C@@H]1C[C@H](N)C[C@H]1c1ccc(Cl)cc1 (relative stereo) [ZXR-810, rel(1R,2R,4R)-4-amino-2-(4-chlorophenyl)-N-isopropyl-N-methyl-cyclopentanecarboxamide] | 26.5% | 200-300 | 20-28% | 40% | activate cell migration | 62.8 nM | more moderately increased | increased | promote the transcriptional activation | 0.62 nM | – | – | –
Cl.N[C@H]1C[C@@H](C(=O)N2CCOCC2)[C@H](c2ccc(Cl)cc2)C1 (relative stereo) [ZXR-081, rel-[(1R,2R,4R)-4-amino-2-(4-chlorophenyl)cyclopentyl]-morpholino-methanone hydrochloride] | 36,6% | < 60,000 | 20-28% | – | activate cell migration | 177 nM | – | increased | – | – | about 3 fold | transitory effect | significantly increased
